Experimental data: ChEMBL document CHEMBL3425494, “Design, synthesis, and antitumor evaluation of novel histone deacetylase inhibitors equipped with a phenylsulfonylfuroxan module as a nitric oxide donor” (J Med Chem, 2015)

System: HEL
Assay: Cell cycle arrest in human HEL cells assessed as accumulation at G1 phase at 0.5 uM after 48 hrs by propidium iodide staining-based flow cytometric analysis (reference value: 47.87%)
Type: functional

Compound: O=C(CCCCCOc1no[n+]([O-])c1S(=O)(=O)c1ccccc1)NO
- Activity: 90.24%
